Measurements reported in ChEMBL document CHEMBL4673317, “Linearolactone and Kaempferol Disrupt the Actin Cytoskeleton in Entamoeba histolytica: Inhibition of Amoebic Liver Abscess Development” (J Nat Prod, 2020).
Values belong to the molecule of their own block, whether it stands above or below them. Active and inactive are the calls of the source. The calls are words filed in the database; no cut-off is given here.

Assays:
Entamoeba histolytica [1] = experiment: Antimicrobial activity against Entamoeba histolytica […] trophozoites infected in Syrian hamster assessed as inhibition of amoebic liver abscess by measuring edema at 0.5 mg/kg, ip at 4 days post infection and measured on day 8 by H and E staining based microscopic method; assay type: functional, organism-based; settings: HM-1:IMSS, time 4.0 day
Entamoeba histolytica [2] = experiment: Antimicrobial activity against Entamoeba histolytica […] trophozoites infected in Syrian hamster assessed as total bilirubin level at 0.05 mg/kg, ip at 4 days post infection and measured on day 8 (reference value: 0.8 +/- 0.2 mg/dl); assay type: functional, HM-1:IMSS; settings: time 4 day
Entamoeba histolytica [3] = experiment: Antimicrobial activity against Entamoeba histolytica […] trophozoites infected in Syrian hamster assessed as ALT level at 0.05 mg/kg, ip at 4 days post infection and measured on day 8 (reference value: 276 +/- 24 U/L); assay type: functional, HM-1:IMSS; settings: time 4 day
Entamoeba histolytica [4] = experiment: Antimicrobial activity against Entamoeba histolytica […] trophozoites infected in Syrian hamster assessed as triglycerides level at 0.05 mg/kg, ip at 4 days post infection and measured on day 8 (reference value: 395 +/- 41 mg/dl); assay type: functional, HM-1:IMSS; settings: time 4 day
Entamoeba histolytica [5] = experiment: Induction of apoptosis in Entamoeba histolytica […] trophozoites assessed as viable cells at IC50 concentration after 48 hrs by annexin-V-FITC/propidium iodide staining based flow cytometric analysis (reference value: 98%); assay type: functional, HM-1:IMSS
Entamoeba histolytica [6] = experiment: Antimicrobial activity against Entamoeba histolytica […] trophozoites infected in Syrian hamster assessed as platelets at 0.05 mg/kg, ip at 4 days post infection and measured on day 8 (reference value: 439 +/- 108 […]); assay type: functional, HM-1:IMSS; settings: time 4 day
Entamoeba histolytica [7] = experiment: Antimicrobial activity against Entamoeba histolytica […] trophozoites assessed as decrease in number of vacuoles at IC50 concentration after 48 hrs by uranyl acetate staining based TEM analysis; assay type: functional, organism-based; settings: HM-1:IMSS
Entamoeba histolytica [8] = experiment: Antimicrobial activity against Entamoeba histolytica […] trophozoites infected in Syrian hamster assessed as inhibition of amoebic liver abscess by abundant monocytes at 0.5 mg/kg, ip at 4 days post infection and measured on day 8 by H and E staining based microscopic method; assay type: functional, organism-based; settings: HM-1:IMSS, time 4.0 day
Entamoeba histolytica [9] = experiment: Induction of ROS generation in Entamoeba histolytica […] trophozoites at IC50 concentration incubated for 1 hr by DCFDA staining based assay; assay type: functional, organism-based; settings: HM-1:IMSS
Entamoeba histolytica [10] = experiment: Antimicrobial activity against Entamoeba histolytica […] trophozoites infected in Syrian hamster assessed as total leukocytes at 0.05 mg/kg, ip at 4 days post infection and measured on day 8 (reference value: 18 +/- 16 […]/mm3); assay type: functional, HM-1:IMSS; settings: time 4 day
Entamoeba histolytica [11] = experiment: Antimicrobial activity against Entamoeba histolytica […] trophozoites infected in Syrian hamster assessed as glucose level at 0.05 mg/kg, ip at 4 days post infection and measured on day 8 (reference value: 126 +/- 18 mg/dl); assay type: functional, HM-1:IMSS; settings: time 4 day
Entamoeba histolytica [12] = experiment: Binding affinity to Entamoeba histolytica […] trophozoites actin assessed as induction of polarization of polymerized actin at IC50 concentration incubated for 1 hrs by […] staining based confocal microscopic analysis
Entamoeba histolytica [13] = experiment: Antimicrobial activity against Entamoeba histolytica HM1:MMS assessed as reduction in amoeba growth; assay type: functional, organism-based; settings: HM-1:IMSS
Entamoeba histolytica [14] = experiment: Antimicrobial activity against Entamoeba histolytica […] trophozoites infected in Syrian hamster assessed as urea level at 0.05 mg/kg, ip at 4 days post infection and measured on day 8 (reference value: 14 +/- 1 mg/dl); assay type: functional, HM-1:IMSS; settings: time 4 day
Entamoeba histolytica [15] = experiment: Antimicrobial activity against Entamoeba histolytica […] trophozoites assessed as decrease in size of cells at IC50 concentration after 48 hrs by uranyl acetate staining based TEM analysis; assay type: functional, organism-based; settings: HM-1:IMSS
Entamoeba histolytica [16] = experiment: Antimicrobial activity against Entamoeba histolytica […] trophozoites assessed as decrease in granularity at IC50 concentration after 48 hrs by uranyl acetate staining based TEM analysis; assay type: functional, organism-based; settings: HM-1:IMSS
Entamoeba histolytica [17] = experiment: Induction of apoptosis in Entamoeba histolytica […] trophozoites assessed as late apoptotic cells at IC50 concentration after 48 hrs by annexin-V-FITC/propidium iodide staining based flow cytometric analysis (reference value: 0.7%); assay type: functional, HM-1:IMSS
Entamoeba histolytica [18] = experiment: Induction of apoptosis in Entamoeba histolytica […] trophozoites assessed as early apoptotic cells at IC50 concentration after 48 hrs by annexin-V-FITC/propidium iodide staining based flow cytometric analysis (reference value: 0.9%); assay type: functional, HM-1:IMSS
Entamoeba histolytica [19] = experiment: Antimicrobial activity against Entamoeba histolytica […] trophozoites infected in Syrian hamster assessed as inhibition of amoebic liver abscess by measuring vascular congestion at 0.5 mg/kg, ip at 4 days post infection and measured on day 8 by H and E staining based microscopic method; assay type: functional, organism-based; settings: HM-1:IMSS, time 4.0 day
Entamoeba histolytica [20] = experiment: Antimicrobial activity against Entamoeba histolytica […] trophozoites infected in Syrian hamster assessed as inhibition of amoebic liver abscess at 0.5 mg/kg, ip at 4 days post infection and measured on day 8 by NMR analysis; assay type: functional, organism-based; settings: HM-1:IMSS, time 4.0 day
Entamoeba histolytica [21] = experiment: Antimicrobial activity against Entamoeba histolytica […] trophozoites infected in Syrian hamster assessed as creatinine level at 0.05 mg/kg, ip at 4 days post infection and measured on day 8 (reference value: 0.9 +/- 0.06 mg/dl); assay type: functional, HM-1:IMSS; settings: time 4 day
CHO-K1 = experiment: Cytotoxicity against CHO-K1 cells assessed as reduction in cell viability after 24 hrs by MTT assay; assay type: cell-based; settings: Cricetulus griseus, CHO-K1, 24 h
Giardia intestinalis = experiment: Antigiardial activity against Giardia lamblia WB infected in ig dosed CD-1 mouse assessed as reduction in parasite growth after 8 days; assay type: functional; settings: Giardia duodenalis, po, 192 h, time 8 day
Entamoeba histolytica [22] = experiment: Antimicrobial activity against Entamoeba histolytica […] trophozoites infected in Syrian hamster assessed as blood ureic nitrogen level at 0.05 mg/kg, ip at 4 days post infection and measured on day 8 (reference value: […]); assay type: functional, HM-1:IMSS; settings: time 4 day
Entamoeba histolytica [23] = experiment: Antimicrobial activity against Entamoeba histolytica […] trophozoites infected in Syrian hamster assessed as ALP level at 0.05 mg/kg, ip at 4 days post infection and measured on day 8 (reference value: 638 +/- 50 U/L); assay type: functional, HM-1:IMSS; settings: time 4 day
BEAS-2B = experiment: Cytotoxicity against human BEAS-2B cells assessed as reduction in cell viability after 24 hrs by MTT assay; assay type: cell-based
Entamoeba histolytica [24] = experiment: Induction of ROS generation in Entamoeba histolytica […] trophozoites at IC50 concentration incubated for 1 hr in presence of trolox by DCFDA staining based assay relative to control; assay type: functional, HM-1:IMSS
Entamoeba histolytica [25] = experiment: Antimicrobial activity against Entamoeba histolytica […] trophozoites assessed as abnormal condensation of chromatin at IC50 concentration after 48 hrs by uranyl acetate staining based TEM analysis; assay type: functional, organism-based; settings: HM-1:IMSS
Entamoeba histolytica [26] = experiment: Induction of apoptosis in Entamoeba histolytica […] trophozoites assessed as necrotic cells at IC50 concentration after 48 hrs by annexin-V-FITC/propidium iodide staining based flow cytometric analysis (reference value: 0.4%); assay type: functional, HM-1:IMSS
Entamoeba histolytica [27] = experiment: Antimicrobial activity against Entamoeba histolytica […] trophozoites infected in Syrian hamster assessed as ALT level at 0.1 mg/kg, ip at 4 days post infection and measured on day 8 (reference value: 276 +/- 24 U/L); assay type: functional, HM-1:IMSS; settings: time 4 day
Entamoeba histolytica [28] = experiment: Antimicrobial activity against Entamoeba histolytica […] trophozoites infected in Syrian hamster assessed as platelets at 0.1 mg/kg, ip at 4 days post infection and measured on day 8 (reference value: 439 +/- 108 […]); assay type: functional, HM-1:IMSS; settings: time 4 day
Entamoeba histolytica [29] = experiment: Antimicrobial activity against Entamoeba histolytica […] trophozoites infected in Syrian hamster assessed as glucose level at 0.1 mg/kg, ip at 4 days post infection and measured on day 8 (reference value: 126 +/- 18 mg/dl); assay type: functional, HM-1:IMSS; settings: time 4 day
Entamoeba histolytica [30] = experiment: Antimicrobial activity against Entamoeba histolytica […] trophozoites infected in Syrian hamster assessed as ALP level at 0.1 mg/kg, ip at 4 days post infection and measured on day 8 (reference value: 638 +/- 50 U/L); assay type: functional, HM-1:IMSS; settings: time 4 day
Entamoeba histolytica [31] = experiment: Antimicrobial activity against Entamoeba histolytica […] trophozoites infected in Syrian hamster assessed as total bilirubin level at 0.1 mg/kg, ip at 4 days post infection and measured on day 8 (reference value: 0.8 +/- 0.2 mg/dl); assay type: functional, HM-1:IMSS; settings: time 4 day
Entamoeba histolytica [32] = experiment: Antimicrobial activity against Entamoeba histolytica […] trophozoites infected in Syrian hamster assessed as creatinine level at 0.1 mg/kg, ip at 4 days post infection and measured on day 8 (reference value: 0.9 +/- 0.06 mg/dl); assay type: functional, HM-1:IMSS; settings: time 4 day
Entamoeba histolytica [33] = experiment: Antimicrobial activity against Entamoeba histolytica […] trophozoites infected in Syrian hamster assessed as blood ureic nitrogen level at 0.1 mg/kg, ip at 4 days post infection and measured on day 8 (reference value: […]); assay type: functional, HM-1:IMSS; settings: time 4 day
Entamoeba histolytica [34] = experiment: Antimicrobial activity against Entamoeba histolytica […] trophozoites infected in Syrian hamster assessed as triglycerides level at 0.1 mg/kg, ip at 4 days post infection and measured on day 8 (reference value: 395 +/- 41 mg/dl); assay type: functional, HM-1:IMSS; settings: time 4 day
Entamoeba histolytica [35] = experiment: Binding affinity to Entamoeba histolytica […] trophozoites actin assessed as formation of pseudo-plates at IC50 concentration incubated for 1 hrs by […] staining based confocal microscopic analysis
Entamoeba histolytica [36] = experiment: Antimicrobial activity against Entamoeba histolytica […] trophozoites infected in Syrian hamster assessed as urea level at 0.1 mg/kg, ip at 4 days post infection and measured on day 8 (reference value: 14 +/- 1 mg/dl); assay type: functional, HM-1:IMSS; settings: time 4 day

- Activity (Entamoeba histolytica [12]): Active
SMILES: O=c1c(O)c(-c2ccc(O)cc2)oc2cc(O)cc(O)c12 [KAEMPFEROL]
- inhibition (Entamoeba histolytica [1]): Active
- Activity (Entamoeba histolytica [2]): 0.4 mg/dL
- Activity (Entamoeba histolytica [3]): 55 U/L
- Activity (Entamoeba histolytica [4]): 442 mg/dL
- Activity (Entamoeba histolytica [5]): 87.3%
- Activity (Entamoeba histolytica [6]): 679 thousand/mm3
- Activity (Entamoeba histolytica [7]): Active
- inhibition (Entamoeba histolytica [8]): Active
- Activity (Entamoeba histolytica [9]): Active
- Activity (Entamoeba histolytica [10]): 19 thousand/mm3
- Activity (Entamoeba histolytica [11]): 58 mg/dL
- IC50 (Entamoeba histolytica [13]): 0.23 µM
- Activity (Entamoeba histolytica [14]): 42 mg/dL
- Activity (Entamoeba histolytica [15]): Active
- Activity (Entamoeba histolytica [16]): Active
- Activity (Entamoeba histolytica [17]): 6.1%
- Activity (Entamoeba histolytica [18]): 4.2%
- inhibition (Entamoeba histolytica [19]): Active
- inhibition (Entamoeba histolytica [20]): Active
- Activity (Entamoeba histolytica [21]): 0.5 mg/dL
- IC50 (CHO-K1): 0.24 mM
- ED50 (Giardia intestinalis): 2.06 µmol/kg
- Activity (Entamoeba histolytica [22]): 19 mg/dL
- Activity (Entamoeba histolytica [23]): 348 U/L
- IC50 (BEAS-2B): 0.35 mM
- Activity (Entamoeba histolytica [24]): 33.36%
- Activity (Entamoeba histolytica [25]): Active
- Activity (Entamoeba histolytica [26]): 2.4%

- Activity (Entamoeba histolytica [35]): Active
SMILES: Cc1ncc([N+](=O)[O-])n1CCO [METRONIDAZOLE]
- Activity (Entamoeba histolytica [27]): 159 U/L
- Activity (Entamoeba histolytica [28]): 616 thousand/mm3
- Activity (Entamoeba histolytica [29]): 148 mg/dL
- Activity (Entamoeba histolytica [30]): 185 U/L
- Activity (Entamoeba histolytica [31]): 0.8 mg/dL
- Activity (Entamoeba histolytica [5]): 91.3%
- Activity (Entamoeba histolytica [32]): 1 mg/dL
- Activity (Entamoeba histolytica [9]): Active
- IC50 (Entamoeba histolytica [13]): 22.9 µM
- Activity (Entamoeba histolytica [15]): Active
- Activity (Entamoeba histolytica [16]): Active
- Activity (Entamoeba histolytica [33]): 19 mg/dL
- Activity (Entamoeba histolytica [34]): 335 mg/dL
- Activity (Entamoeba histolytica [17]): 2.9%
- Activity (Entamoeba histolytica [18]): 5.5%
- IC50 (CHO-K1): 2.92 mM
- IC50 (BEAS-2B): 2.24 mM
- Activity (Entamoeba histolytica [36]): 41 mg/dL
- Activity (Entamoeba histolytica [24]): 49.11%
- Activity (Entamoeba histolytica [25]): Active
- Activity (Entamoeba histolytica [26]): 0.3%
